# Values quoted from earlier work as cited in patent US6949538B2, “Compounds, compositions, and methods” (Cytokinetics, Inc., priority 2002, dated 2005).
# System: A549 cells
# Settings: data provided by National Cancer Institute, Developmental Therapeutic Program
row,SMILES,GI50 [nM]
1,O=c1[nH]cc(F)c(=O)[nH]1 [5-fluorouracil],1000
2,CC(=O)O[C@H]1C(=O)[C@@]2(C)[C@H]([C@H](OC(=O)c3ccccc3)[C@]3(O)C[C@H](OC(=O)[C@H](O)[C@@H](NC(=O)c4ccccc4)c4ccccc4)C(C)=C1C3(C)C)[C@]1(OC(C)=O)CO[C@@H]1C[C@@H]2O [paclitaxel],4
3,NC(=O)NO [hydroxyurea],500000
4,COc1cccc2c1C(=O)c1c(O)c3c(c(O)c1C2=O)C[C@@](O)(C(=O)CO)C[C@@H]3O[C@H]1C[C@H](N)[C@H](O)[C@H](C)O1 [doxorubicin],63
